The values that follow come from US20110028507A1, “PYRIDINE DERIVATIVES AND METHODS OF USE THEREOF” (CRYSTALGENOMICS, INC., priority 2007, published 2011).

One experiment addresses T1, HIF-PH2 (EGLN1) (Homo sapiens, UniProt Q9GZT9).
T1 construct: made in house; host or cells: E. coli
The experiment in a line: HIF-PH2 (PHD2) assay (fluorescence polarization method). Type of experiment: biochemical. The note with it: 200 nM HIF PH2 enzyme, 50 nM peptide substrate, 30° C. one hour; read-out: IC50 (HIF PH2 inhibition activity). Here is the method: HIF-PH2 (EGLN1) was expressed from E. coli cells, and purified using two process: an Ni-affinity chromatography column and a size-exclusion chromatography column.
To evaluate activities of an HIF PH2 inhibitor, HIF PH2 enzyme that was first overexpressed by genetic recombination and then purified was used to perform an enzyme reaction. […] At this time, 2 mM ascorbic acid and 5 mM ketoglutarate with 100 μM FeCl2 or without FeCl2, were used together with crude enzyme. A concentration of HIF PH2 inhibitor to be tested was treated and reacted at 30° C. for one hour. After the reaction, the resulting reaction product was boiled at 95° C. for one minute to suppress the enzyme reaction.
To determine whether prolyl hydroxylation occurs in the substrate as the secondary reaction, 500 nM GST-VBC (GST-VHL-Elongin B-Elongin C) protein was added to a reaction buffer (50 mM Tris-Cl (pH8.0), 120 mM NaCl, 0.5% Nonidet P40), and a GST-VBC binding reaction was carried out at room temperature for 30 minutes.
A fluorescence polarization value of a sample that is not treated with the HIF PH2 inhibitor was used as 100% control, and the activities of the HIF PH2 inhibitor were measured as percentage of the remaining HIF PH2 enzyme activity in samples treated with a concentration of the HIF PH2 inhibitor to be tested.

Another experiment deals with VEGF gene. The experiment in a line: Cell-based luciferase reporter assay, pVEGF-Luc in HeLa cells. The note with it: Homo sapiens, compound 100 μM, 24 hrs. The source says:
(§1) A luciferase assay was used to determine the changes in transcription amount of EPO and VEGF genes in cells. For the luciferase assay, a human HIF I a gene was first cloned into an animal cell expression vector, pFlag-CMV, to prepare a pFlag-HIF1α vector, and a hypoxia responsible element (HRE) sequence of an EPO gene 3′-enhancer domain was then cloned upstream of luciferase and TK promoter genes to prepare a pEPO HRE-Luc expression vector. Also, the promoter and luciferase domains of the VEGF gene were cloned into a pGL3-basic vector to prepare a pVEGF-Luc expression vector. HeLa cells were seed-cultured in a medium dish to grow to about 70-80% density one day before the HeLa cells were to be used. The HeLa cells were transfected with each of the prepared pEPO HRE-Luc and pVEGF-Luc expression vectors together with the pFlag-HIF1α and the Renilla luciferase expression vector (Promega, Madison, Wis., USA), by using LipofectAMINE PLUS™ (Invitrogen Life Technologies, Carlsbad Calif.). Three hours after the transfection, the medium was exchanged with DMEM, 1% Penicillin-Streptomycin in 10% FBS supplemented with serum. At this time, cultured cells were treated with each of the compounds at the concentrations indicated. Then, the cells were cultured for 24 hrs in an incubator that was maintained under conditions of 37° C., 20% O2 and 5% CO2. After culturing, cells were washed twice with cold phosphate buffer saline (PBS). Luciferase activity of the cells was measured using the dual luciferase assay system (Promega, Madison, Wis., USA).
In general terms: A reporter such as luciferase makes a cellular process visible.

The next experiment has as its system EPO gene. The experiment in a line: Cell-based luciferase reporter assay, pEPO HRE-Luc in HeLa cells. Particulars: Homo sapiens, compound 100 μM, 24 hrs, read-out: EPO fold induction over control.
Text: as §1

A further experiment relates to EPO. Put plainly: Human EPO immunoassay (ELISA of Hep3B culture media). Type of experiment: cell-based. The note with it: Hep3B cells, compound at 100 μM, 24-hour incubation; for EPO (mIU/ml): culture media ELISA; for fold induction at 100 µM: Homo sapiens, read-out: Fold Induction over control (EPO Induction). How it is done:
Human cells derived from hepatocarcinoma (Hep3B) tissue (see, e.g., American Type Culture Collection, Manassas Va.) were grown at 37° C., 20% O2, 5% CO2 in DMEM (GIBCO)+10% FBS, 4.5 g/L D-Glucose; L-Glutamate and 110 mg/L sodium pyruvate. Ninety-six well plates were seeded with 4×10^4 HEP3B cells/well. The media was removed and replaced with DMEM+10% FBS. Compounds were added to wells at concentrations between 1 μM-100 μM for a 24-hour incubation. Cell culture media was harvested and EPO concentration was determined using a Human Erythropoietin Quantikine IVD ELISA Kit (R&D Systems®, Minneapolis, Minn.) following the manufacturer's instructions for the benchtop assay.
In general terms: ELISA stands for enzyme-linked immunosorbent assay.

The mark [1] stands for this setting: read-out: VEGF 1 fold induction over control.
Setting [2] is: read-out: VEGF 2 fold induction over control.

Read-outs that look alike come from different tables or passages of the source.

T1 sequence (Q9GZT9 whole entry, species assumed): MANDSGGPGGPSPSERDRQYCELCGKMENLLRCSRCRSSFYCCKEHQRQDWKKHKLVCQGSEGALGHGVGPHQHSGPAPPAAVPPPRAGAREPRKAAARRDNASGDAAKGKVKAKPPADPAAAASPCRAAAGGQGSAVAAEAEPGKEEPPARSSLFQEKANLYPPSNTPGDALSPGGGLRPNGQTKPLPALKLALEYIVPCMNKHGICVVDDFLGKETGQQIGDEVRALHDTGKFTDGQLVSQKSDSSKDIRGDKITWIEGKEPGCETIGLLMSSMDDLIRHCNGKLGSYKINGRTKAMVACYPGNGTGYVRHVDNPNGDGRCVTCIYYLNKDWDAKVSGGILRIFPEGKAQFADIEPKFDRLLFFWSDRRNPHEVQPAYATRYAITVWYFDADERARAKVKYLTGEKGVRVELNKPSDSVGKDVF

What is called IC50 is the concentration that inhibits the measured activity by half. Take `O=C(NCc1ccccn1)c1nc(Br)c2c(sc3ccccc32)c1O` [1-Bromo-4-hydroxy-benzo[4,5]thieno[3,2-c]pyridine-3-carboxylic acid (pyridin-2-ylmethyl)-amide]: on HIF-PH2 (EGLN1), the IC50 is under 25 µM. For the same compound, the fold induction at 100 µM with VEGF gene (setting [1]) is 2.1 to 4; with EPO gene it was under 2.
For `COc1ccc(Cn2nnnc2CNC(=O)c2nc(Br)c3c(sc4ccccc43)c2O)cc1` [1-Bromo-4-hydroxy-benzo[4,5]thieno[3,2-c]pyridine-3-carboxylic acid [1-(4-methoxy-benzyl)-1H-tetrazol-5-ylmethyl]-amide] the same measures were 26 to 100 µM, under 2 and under 2.
In the case of `COc1ccc(Cn2nnc(CNC(=O)c3nc(Br)c4c(sc5ccccc54)c3O)n2)cc1` [1-Bromo-4-hydroxy-benzo[4,5]thieno[3,2-c]pyridine-3-carboxylic acid [2-(4-methoxy-benzyl)-2H-tetrazol-5-ylmethyl]-amide], the IC50 at HIF-PH2 (EGLN1) was under 25 µM. Moreover, the fold induction at 100 µM with VEGF gene (setting [1]) is 2.1 to 4; in the experiment with EPO gene, under 2.
For `O=C(NCc1ccccc1)c1nc(Br)c2c(sc3ccccc32)c1O` [1-Bromo-4-hydroxy-benzo[4,5]thieno[3,2-c]pyridine-3-carboxylic acid benzylamide], in that order: 26 to 100 µM, under 2 and under 2.
For `Nc1ccc2sc3c(O)c(C(=O)NCC(=O)O)nc(Cl)c3c2c1` [3-(Carboxymethyl-carbamoyl)-1-chloro-4-hydroxy-benzo[4,5]thieno[3,2-c]pyridin-8-yl-ammonium] the same measures were under 25 µM, 2.1 to 4 and 2.1 to 4.
For `C[C@H](NC(=O)c1nc(Br)c2c(sc3ccccc32)c1O)C(=O)O` [(S)-2-[(1-Bromo-4-hydroxy-benzo[4,5]thieno[3,2-c]pyridine-3-carbonyl)-amino]-propionic acid], at HIF-PH2 (EGLN1), the IC50 lay in the range of 26 to 100 µM. Besides, the fold induction at 100 µM in the experiment on VEGF gene (setting [1]) is over 4.1; in the experiment with EPO gene, 2.1 to 4.
For `C[C@H](NC(=O)c1nc(Cl)c2c(sc3ccccc32)c1O)C(=O)O` [(S)-2-[(1-Chloro-4-hydroxy-benzo[4,5]thieno[3,2-c]pyridine-3-carbonyl)-amino]-propionic acid] the same measures were 26 to 100 µM, over 4.1 and 2.1 to 4.
For `O=C(O)CNC(=O)c1nc(Br)c2c(sc3ccccc32)c1O` [[(1-Bromo-4-hydroxy-benzo[4,5]thieno[3,2-c]pyridine-3-carbonyl)-amino]-acetic acid], in that order: under 25 µM, 4 and over 4.1.
On to `O=C(O)CNC(=O)c1nc(Cl)c2c(sc3ccc([N+](=O)[O-])cc32)c1O` [[(1-Chloro-4-hydroxy-8-nitro-benzo[4,5]thieno[3,2-c]pyridine-3-carbonyl)-amino]-acetic acid], for which, on HIF-PH2 (EGLN1), the IC50 is under 25 µM. Also, the fold induction at 100 µM in the experiment on VEGF gene (setting [1]) was over 4.1; in the experiment on EPO gene, 2.1 to 4.
As for `O=C(O)CNC(=O)c1nc(Cl)c2c(sc3ccccc32)c1O` [[(1-Chloro-4-hydroxy-benzo[4,5]thieno[3,2-c]pyridine-3-carbonyl)-amino]-acetic acid], in the experiment on EPO, the “EPO (mIU/ml)” value is reported as “J (J = 21-40 mIU/ml)”. For the same compound, the fold induction at 100 µM was 21 to 50 in the experiment on EPO, over 4.1 in the experiment on VEGF gene (setting [1]), over 4.1 with VEGF gene (setting [2]) and over 4.1 with EPO gene.
For `CN(C)c1ccc2sc3c(O)c(C(=O)NCC(=O)O)nc(Cl)c3c2c1` [[(1-Chloro-8-dimethylamino-4-hydroxy-benzo[4,5]thieno[3,2-c]pyridine-3-carbonyl)-amino]-acetic acid], the IC50 on HIF-PH2 (EGLN1) is under 25 µM. The fold induction at 100 µM with VEGF gene (setting [1]) and with EPO gene was over 4.1 in each case.
As to `CCNc1ccc2sc3c(O)c(C(=O)NCC(=O)O)nc(Cl)c3c2c1` [[(1-Chloro-8-ethylamino-4-hydroxy-benzo[4,5]thieno[3,2-c]pyridine-3-carbonyl)-amino]-acetic acid], the IC50 on HIF-PH2 (EGLN1) was under 25 µM. In the experiment with EPO, the “EPO (mIU/ml)” value is “K (K = 41-60 mIU/ml)” and the fold induction at 100 µM is 51 to 70.
In the case of `O=C(O)CNC(=O)c1nc(Cl)c2c(sc3cccc(F)c32)c1O` [[(1-Chloro-9-fluoro-4-hydroxy-benzo[4,5]thieno[3,2-c]pyridine-3-carbonyl)-amino]-acetic acid], the half-maximal inhibitory concentration (IC50) at HIF-PH2 (EGLN1) is under 25 µM. In addition, in the experiment with EPO, the “EPO (mIU/ml)” value is on record as “K (K = 41-60 mIU/ml)” and the fold induction at 100 µM is over 71. Also, in the experiment with VEGF gene (setting [2]), the fold induction at 100 µM fell in the range of 2.1 to 4.
Consider `N#Cc1nc(C(=O)NCC(=O)O)c(O)c2sc3ccccc3c12` [[(1-Cyano-4-hydroxy-benzo[4,5]thieno[3,2-c]pyridine-3-carbonyl)-amino]-acetic acid], for which the fold induction at 100 µM in the experiment on VEGF gene (setting [1]) is 2.1 to 4; in the experiment with EPO gene, under 2.
Turning to `O=C(O)CNC(=O)c1ncc2c(cnn2-c2ccccc2)c1O` [[(4-Hydroxy-1-phenyl-1H-pyrazolo[3,4-c]pyridine-5-carbonyl)-amino]-acetic acid], on HIF-PH2 (EGLN1), the IC50 was under 25 µM. Besides, the fold induction at 100 µM was 2.1 to 4 in the experiment with VEGF gene (setting [1]) and over 4.1 in the experiment with EPO gene.
Take `O=C(O)CNC(=O)c1ncc2c(cnn2-c2ccccn2)c1O` [[(4-Hydroxy-1-pyridin-2-yl-1H-pyrazolo[3,4-c]pyridine-5-carbonyl)-amino]-acetic acid]: the IC50 on HIF-PH2 (EGLN1) is under 25 µM. Further, in the experiment on EPO, the “EPO (mIU/ml)” value is recorded as “I (I = 0-20 mIU/ml)” and the fold induction at 100 µM was under 20.
For the compound `O=C(O)CNC(=O)c1nc(Cl)c2c(cnn2-c2ccccc2)c1O` [[(7-Chloro-4-hydroxy-1-phenyl-1H-pyrazolo[3,4-c]pyridine-5-carbonyl)-amino]-acetic acid], at HIF-PH2 (EGLN1), the IC50 was under 25 µM. Also, the fold induction at 100 µM was 2.1 to 4 in the experiment on VEGF gene (setting [1]) and over 4.1 in the experiment with EPO gene.
As for `Cc1nc(C(=O)NCC(=O)O)c(O)c2sc3cc(F)ccc3c12` [[(7-Fluoro-4-hydroxy-1-methyl-benzo[4,5]thieno[3,2-c]pyridine-3-carbonyl)-amino]-acetic acid], at HIF-PH2 (EGLN1), the IC50 is under 25 µM. Also, in the experiment on EPO, the “EPO (mIU/ml)” value is “L (L = >61 mIU/ml)” and the fold induction at 100 µM fell in the range of 21 to 50.
For the compound `CC(=O)Nc1ccc2sc3c(O)c(C(=O)NCC(=O)O)nc(Cl)c3c2c1` [[(8-Acetylamino-1-chloro-4-hydroxy-benzo[4,5]thieno[3,2-c]pyridine-3-carbonyl)-amino]-acetic acid], the IC50 on HIF-PH2 (EGLN1) is under 25 µM. Besides, the fold induction at 100 µM with VEGF gene (setting [2]) was under 2.
For the compound `O=C(O)CNC(=O)c1nc(Cl)c2c(sc3ccc(NS(=O)(=O)c4ccccc4)cc32)c1O` [[(8-Benzenesulfonylamino-1-chloro-4-hydroxy-benzo[4,5]thieno[3,2-c]pyridine-3-carbonyl)-amino]-acetic acid], the IC50 on HIF-PH2 (EGLN1) is under 25 µM. In the experiment on EPO, the “EPO (mIU/ml)” value is recorded as “I (I = 0-20 mIU/ml)” and the fold induction at 100 µM was under 20.
